Results from publication PMC3922815 (PLoS ONE, 2014).
Where “and” joins values, the source holds several entries; their conditions need not be identical. Equal entries are not always repeated. Where two headings read alike, the source gives them in different places.

Columns and labels:
[1] = molecular target: T1, human GABAA α3β2γ2 (Homo sapiens, UniProt P18507+P34903); assay: biochemical
[2] = molecular target: T2, human GABAA α2β2γ2 (Homo sapiens, UniProt P18507+P47869); assay: biochemical
[3] = molecular target: T2, human GABAA α2β2γ2
[4] = molecular target: native GABAA receptors from rat-brain homogenates
[5] = molecular target: T1, human GABAA α3β2γ2; settings: Ki α3β2γ2 / Ki α2β2γ2
[6] = molecular target: T3, human GABAA α1β2γ2 (Homo sapiens, UniProt P14867+P18507); settings: for Binding affinity normalized to GABAA α2 (ratio of Ki values): Ki α1β2γ2 / Ki α2β2γ2
[7] = molecular target: T3, human GABAA α1β2γ2; assay: biochemical
[8] = molecular target: T4, human GABAA α5β2γ2 (Homo sapiens, UniProt P18507+P31644); assay: biochemical
[9] = molecular target: T4, human GABAA α5β2γ2; settings: Ki α5β2γ2 / Ki α2β2γ2
[10] = molecular target: human GABAA-receptor complexes α1β2γ2, α2β2γ2, α3β2γ2, α5β2γ2
[11] = tested on: PTZ and audiogenic-induced seizures; parameters: method as in PMID 10816315; settings: PTZ and audiogenic-induced seizures in mice; cited from earlier work
[12] = cited from earlier work
[13] = molecular target: T2, human GABAA α2β2γ2; remark: listed apart in the source
[14] = molecular target: T4, human GABAA α5β2γ2
[15] = tested on: refractory epilepsy patients; parameters: method as in PMID 3828198; settings: dosages giving concentrations similar to those after clobazam dosing; cited from earlier work
[16] = molecular target: T1, human GABAA α3β2γ2
[17] = tested on: tonic convulsions following PTZ administration; parameters: method as in PMID 11021797; settings: cited from earlier work; for percentage of mice convulsing: 3 mg/kg
[18] = tested on: pentylenetetrazole (PTZ)-induced seizures; parameters: method as in PMID 17092983; settings: greatest diazepam dosage, cited from earlier work

T2 sequence (P47869 29-451): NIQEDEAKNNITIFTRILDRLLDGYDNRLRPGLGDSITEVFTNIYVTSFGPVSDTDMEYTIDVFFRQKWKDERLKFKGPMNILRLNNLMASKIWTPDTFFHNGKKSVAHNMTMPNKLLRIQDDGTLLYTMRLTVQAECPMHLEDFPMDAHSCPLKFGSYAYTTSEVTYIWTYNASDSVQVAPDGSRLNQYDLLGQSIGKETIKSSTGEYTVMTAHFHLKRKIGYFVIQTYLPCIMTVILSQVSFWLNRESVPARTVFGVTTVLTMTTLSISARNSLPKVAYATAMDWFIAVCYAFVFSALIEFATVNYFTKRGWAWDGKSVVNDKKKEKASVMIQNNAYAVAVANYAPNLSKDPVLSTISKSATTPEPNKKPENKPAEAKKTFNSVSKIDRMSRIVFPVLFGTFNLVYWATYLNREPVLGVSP
T2 sequence (P47870 25-512 partner limits assumed): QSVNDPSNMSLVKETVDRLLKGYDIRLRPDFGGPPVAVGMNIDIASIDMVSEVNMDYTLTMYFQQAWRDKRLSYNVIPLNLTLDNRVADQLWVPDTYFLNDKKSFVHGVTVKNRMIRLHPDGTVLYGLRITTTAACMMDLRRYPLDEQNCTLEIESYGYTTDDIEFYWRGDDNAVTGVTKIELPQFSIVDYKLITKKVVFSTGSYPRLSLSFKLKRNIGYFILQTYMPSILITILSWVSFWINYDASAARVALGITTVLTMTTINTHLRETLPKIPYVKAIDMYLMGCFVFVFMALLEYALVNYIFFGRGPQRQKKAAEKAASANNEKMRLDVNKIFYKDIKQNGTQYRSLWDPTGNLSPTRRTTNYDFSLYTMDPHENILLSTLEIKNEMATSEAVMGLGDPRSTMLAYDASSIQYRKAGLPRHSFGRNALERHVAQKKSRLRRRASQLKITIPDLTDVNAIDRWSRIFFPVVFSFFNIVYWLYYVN
T2 sequence (P18507 40-475): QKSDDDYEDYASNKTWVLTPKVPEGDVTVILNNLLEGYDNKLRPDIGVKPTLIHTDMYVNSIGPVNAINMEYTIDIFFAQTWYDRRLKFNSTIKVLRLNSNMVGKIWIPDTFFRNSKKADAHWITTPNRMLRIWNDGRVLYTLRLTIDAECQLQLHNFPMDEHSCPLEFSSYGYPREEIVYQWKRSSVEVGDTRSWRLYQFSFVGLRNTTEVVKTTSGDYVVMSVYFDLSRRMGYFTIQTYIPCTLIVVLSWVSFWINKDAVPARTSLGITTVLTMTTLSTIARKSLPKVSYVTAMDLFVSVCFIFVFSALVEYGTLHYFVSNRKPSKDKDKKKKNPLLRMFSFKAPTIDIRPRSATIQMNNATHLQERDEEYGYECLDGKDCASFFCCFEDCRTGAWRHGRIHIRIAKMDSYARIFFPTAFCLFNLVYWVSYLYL
T4 sequence (P31644 32-462): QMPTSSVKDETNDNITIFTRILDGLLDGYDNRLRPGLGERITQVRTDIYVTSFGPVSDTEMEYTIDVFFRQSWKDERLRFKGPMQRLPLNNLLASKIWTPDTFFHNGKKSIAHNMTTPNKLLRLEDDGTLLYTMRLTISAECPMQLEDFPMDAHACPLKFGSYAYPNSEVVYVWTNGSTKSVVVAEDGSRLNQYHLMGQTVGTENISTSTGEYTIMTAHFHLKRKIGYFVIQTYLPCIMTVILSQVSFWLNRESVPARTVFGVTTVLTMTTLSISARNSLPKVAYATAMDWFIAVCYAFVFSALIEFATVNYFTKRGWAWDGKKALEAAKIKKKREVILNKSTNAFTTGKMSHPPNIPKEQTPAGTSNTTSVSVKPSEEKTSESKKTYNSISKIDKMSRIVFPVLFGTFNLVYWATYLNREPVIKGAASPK
T4 sequence (P47870 25-512 partner limits assumed): as the sequence (P47870 25-512 partner limits assumed) above
T4 sequence (P18507 40-475): as the sequence (P18507 40-475) above
T3 sequence (P14867 28-456): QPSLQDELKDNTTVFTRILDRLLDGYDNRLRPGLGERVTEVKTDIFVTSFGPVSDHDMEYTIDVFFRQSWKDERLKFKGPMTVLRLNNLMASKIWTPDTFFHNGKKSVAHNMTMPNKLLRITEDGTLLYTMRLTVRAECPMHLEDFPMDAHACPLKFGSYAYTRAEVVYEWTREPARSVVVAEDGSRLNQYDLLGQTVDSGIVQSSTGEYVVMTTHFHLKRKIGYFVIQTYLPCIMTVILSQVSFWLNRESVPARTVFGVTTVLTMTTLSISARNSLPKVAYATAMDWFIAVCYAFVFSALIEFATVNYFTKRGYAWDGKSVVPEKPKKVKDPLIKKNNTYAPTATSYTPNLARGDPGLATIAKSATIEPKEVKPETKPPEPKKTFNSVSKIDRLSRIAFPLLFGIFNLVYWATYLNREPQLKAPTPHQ
T3 sequence (P47870 25-512 partner limits assumed): as the sequence (P47870 25-512 partner limits assumed) above
T3 sequence (P18507 40-475): as the sequence (P18507 40-475) above
T1 sequence (P34903 29-492): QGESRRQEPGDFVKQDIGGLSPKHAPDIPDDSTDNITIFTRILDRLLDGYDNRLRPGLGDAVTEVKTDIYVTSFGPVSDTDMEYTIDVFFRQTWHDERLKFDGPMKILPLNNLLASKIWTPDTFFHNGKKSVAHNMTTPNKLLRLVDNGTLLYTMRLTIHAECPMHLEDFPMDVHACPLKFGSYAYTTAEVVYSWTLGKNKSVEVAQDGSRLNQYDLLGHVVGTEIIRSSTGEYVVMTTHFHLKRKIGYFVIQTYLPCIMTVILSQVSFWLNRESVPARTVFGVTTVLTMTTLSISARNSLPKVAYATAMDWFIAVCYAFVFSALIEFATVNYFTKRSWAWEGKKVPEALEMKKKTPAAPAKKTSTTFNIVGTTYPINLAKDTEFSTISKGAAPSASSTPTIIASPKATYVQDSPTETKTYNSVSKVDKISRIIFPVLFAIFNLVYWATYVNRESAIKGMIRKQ
T1 sequence (P47870 25-512 partner limits assumed): as the sequence (P47870 25-512 partner limits assumed) above
T1 sequence (P18507 40-475): as the sequence (P18507 40-475) above

CN1C(=O)CC(=O)N(c2ccccc2)c2cc(Cl)ccc21 [Clobazam]
Ki [1]: 0.753 µM
Ki [2]: 0.205 µM
Binding affinity normalized to GABAA α2 (ratio of Ki values) [3]: 1
Ki [4]: 0.151 µM
Binding affinity normalized to GABAA α2 (ratio of Ki values) [5]: 3.7
Binding affinity normalized to GABAA α2 (ratio of Ki values) [6]: 2.5
Ki [7]: 0.519 µM
Ki [8]: 0.331 µM
Binding affinity normalized to GABAA α2 (ratio of Ki values) [9]: 1.6

O=C1CN=C(c2ccccc2Cl)c2cc([N+](=O)[O-])ccc2N1 [Clonazepam]
Ki [1]: 0.00224 µM
Ki [2]: 0.00072 µM
Binding affinity normalized to GABAA α2 (ratio of Ki values) [3]: 1
Ki [4]: 0.000263 µM and 0.00026 µM
Ki [10]: 0.00065 to 0.0022 µM
Binding affinity normalized to GABAA α2 (ratio of Ki values) [6]: 0.9
Ki [7]: 0.00065 µM
Ki [8]: 0.00078 µM
Binding affinity normalized to GABAA α2 (ratio of Ki values) [9]: 1.1

Cn1ncnc1COc1nn2c(-c3cc(F)ccc3F)nnc2cc1C(C)(C)C [L-838,417]
anticonvulsant activity [11]: retains anticonvulsant activity

O=C1CC(=O)N(c2ccccc2)c2cc(Cl)ccc2N1 [N-desmethylclobazam]
half-life ([12]; humans): 79 h
concentration of N-CLB relative to the parent compound ([12]; prolonged clinical use of CLB): more than 2 fold
Ki [13]: 0.148 µM and 0.147 µM
Ki [14]: 0.295 µM and 0.292 µM
Binding affinity normalized to GABAA α2 (ratio of Ki values) [3]: 1
patients responding favorably [15]: 8 of 9
Ki [4]: 0.132 µM and 0.133 µM
Binding affinity normalized to GABAA α2 (ratio of Ki values) [5]: 4.6
Ki [6]: 0.631 µM and 0.634 µM
Binding affinity normalized to GABAA α2 (ratio of Ki values) [6]: 4.3
Ki [16]: 0.661 µM and 0.668 µM
Binding affinity normalized to GABAA α2 (ratio of Ki values) [9]: 2.0

Cc1ccc(-c2nc3ccc(C)cn3c2CC(=O)N(C)C)cc1 [Zolpidem]
Ki [10]: 0.03 to 5.43 µM
Ki [8]: 5.43 µM

CN1C(=O)CN=C(c2ccccc2F)c2cc([N+](=O)[O-])ccc21 [^3H-flunitrazepam]
Kd ([4]; read-out: Kd (tracer equilibrium dissociation constant), saturation binding, rat-brain homogenates): 0.0015 ± 0.0002 µM

CN1C(=O)CN=C(c2ccccc2)c2cc(Cl)ccc21 [diazepam]
percentage of mice convulsing ([17]; wild-type mice): approximately 20%
percentage of mice convulsing ([17]; α2(H101R) mice): approximately 50%
protection from tonic convulsions ([17]; 10 and 30 mg/kg, both wild-type and α2(H101R) mice): 100%
seizure level on the Racine scale ([18]; wild-type mice, reversed from 6): 1
seizure scoring on the Racine scale ([18]; α2(H101R) mice): approximately 3.5
